Source: PubChem BioAssay (NCI)
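A five-concentration, 48-hour dose response in 96-well plates underlies each endpoint, interpolated linearly between surrounding concentrations. GI50: concentration for 50% inhibition of growth. TGI: concentration producing complete growth inhibition.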

These molecules were tested on SNB-19 CNS (assay: DTP human tumour cell line panel, 48 h).

SMILES | GI50 | TGI
COc1ccc2c3c(Nc4ccc(/C(C)=N/O)cc4)[nH]c4ccccc4c-3c(N=O)c2c1 | 22.9 µM | 51.9 µM
C/C(CCn1[nH]c(=O)ccc1=O)=N\OCCCc1ccccc1 |  | > 100 µM
Nc1nc(N)c2cc(CNc3ccc(C(=O)NC(CC(=O)O)C(=O)O)c(Cl)c3)ccc2n1 (stereo unspecified) | 0.05 µM | > 500 µM
CCN(CC)c1cc2oc3cc(N)cc(=N)c-3nc2cc1C | 5.46 µM | 32 µM
CC(=O)OC1C2CCC1C1C2C2(Cl)C(Cl)=C(Cl)C1(Cl)C2(Cl)Cl (stereo unspecified) |  | 28.6 µM
CC(C(=O)n1c2ccccc2c2ccccc21)N(c1ccccc1)c1ccccc1 (stereo unspecified) |  | > 100 µM
CCOC(=O)Cn1c(=O)n(C)c(=O)c2c1ncn2Cc1ccccc1 |  | > 100 µM
O=C1CSC(c2ccc(-c3nc4ccccc4s3)cc2)=N1 | 72.7 µM | > 100 µM
CCC(=O)Nc1ccc(N=NN(C)C)cc1 |  | > 100 µM
C=CCN1CC2CON(C(=O)C(OC)(c3ccccc3)C(F)(F)F)C2C1C(C)C (stereo unspecified) | 54.5 µg/mL | 
O=S1(=O)OCCOS(=O)(=O)C1Cl |  | > 100 µM
Oc1ccc(Br)cc1C=Nc1ccc(N=Cc2cc(Br)ccc2O)cc1 |  | > 100 µM
CCOc1ccccc1NC(=O)C(=O)Cc1nc2ccccc2s1 |  | > 100 µM
CO/N=C(/C)c1cccc(Nc2cc(-c3ccccc3)nc3ccc(OC)cc23)c1 | 35.2 µM | > 100 µM
Cc1cccc(N=C2NC(=O)C(CC(=O)Nc3cccc(C)c3C)S2)c1 (stereo unspecified) |  | > 100 µM
O=C(O)CSc1n[nH]c(Cc2ccccc2)n1 |  | > 100 µM
O=C1C(Cl)=C(Nc2ccccc2O)C(=O)N1Cc1ccccc1 | 35.8 µM | > 100 µM

What follows are molecules tested on KM12 colon (assay: DTP human tumour cell line panel, 48 h).

SMILES | GI50 | TGI
CN1CCN(c2ccc(Nc3ncc4cc(C#N)c(=O)n(C5CCCC5)c4n3)cc2)CC1 | 1.52 µM | > 100 µM
C=C1CC[C@@H](C(C)C)C[C@@H]2[C@H]([C@H](O)C[C@]2(C)O)[C@@]2(C)CC[C@@H]1O2 | 16.2 µM | 32 µM
Nc1ccc2[nH]cc(CCC(=O)O)c2c1 |  | > 100 µM
OCC(O)CNc1ccnc2cc(Cl)ccc12 (stereo unspecified) |  | > 100 µM
Cc1cccc(C(C)C)c1NC(=O)C(=O)C(C(=O)c1ccccc1F)C1OC(=O)c2ccccc21 (stereo unspecified) |  | 50 µM
O=C(N/N=C/c1c(Cl)cccc1Cl)c1ccc(C(F)(F)F)nc1Nc1cccc(C(F)(F)F)c1 | 1.1 µM | > 30 µM
O=C(NO)c1ccc(CN(c2cnccn2)c2cnccn2)cc1 | 10.3 µM | 24.2 µM
Cc1ccc(Nc2nnc(-c3ccc4c(c3)OCO4)o2)c(C)c1 |  | > 100 µM
CCCCCc1ccc(S(=O)(=O)Nc2cc(-c3csc(NC(C)=O)n3)ccc2N2CCN(C)CC2)cc1 | 5.65 µM | 11 µM
Cc1cccc(C)c1NC(=O)C(=O)CC(=O)c1cccc([N+](=O)[O-])c1 |  | > 100 µM
Cc1ccc(S(=O)(=O)NC(=O)NC2=NC(C)(C)N(c3ccc(Cl)c(Cl)c3)C(N)=N2)cc1 |  | > 100 µM
S=C1SC2=Nc3ccccc3CN2C2=NCCN12 | > 100 µM | > 100 µM
O=C(O)CN(c1ccccc1)S(=O)(=O)c1ccc([N+](=O)[O-])cc1 |  | > 100 µM
Clc1cc(Cl)cc(Nc2ccc3cc(OCCCN4CCOCC4)ccc3n2)c1 | 2.23 µM | 5.4 µM
COc1ccc2c3c(Nc4ccc(/C(C)=N/O)cc4)[nH]c4ccccc4c-3c(N=O)c2c1 | 1.13 µM | 4.39 µM
C/C(CCn1[nH]c(=O)ccc1=O)=N\OCCCc1ccccc1 |  | > 100 µM
Nc1nc(N)c2cc(CNc3ccc(C(=O)NC(CC(=O)O)C(=O)O)c(Cl)c3)ccc2n1 (stereo unspecified) |  | > 500 µM

SMILES | GI50 | TGI
CCN(CC)c1cc2oc3cc(N)cc(=N)c-3nc2cc1C | 3.93 µM | 29.8 µM
CC(=O)OC1C2CCC1C1C2C2(Cl)C(Cl)=C(Cl)C1(Cl)C2(Cl)Cl (stereo unspecified) |  | 27.6 µM
CCOC(=O)Cn1c(=O)n(C)c(=O)c2c1ncn2Cc1ccccc1 |  | > 100 µM
CC(C)(C)OC(=O)N1N=NC2C1C1CC(OCc3ccccc3)(OCc3ccccc3)C2O1 (stereo unspecified) |  | > 100 µM
O=C1CSC(c2ccc(-c3nc4ccccc4s3)cc2)=N1 | 3.11 µM | 13.8 µM
Cc1ncc([N+](=O)[O-])n1CCNS(=O)(=O)CCCn1ncnc1[N+](=O)[O-] |  | > 100 µM
O=c1c2ccccc2nc(-c2ccccc2)n1NC(=S)Nc1ccccc1 |  | > 100 µM
CCOC(=O)/C(=C/c1cccc(C#N)c1)N(CC)CC |  | > 100 µM
C=CCN1CC2CON(C(=O)C(OC)(c3ccccc3)C(F)(F)F)C2C1C(C)C (stereo unspecified) | 36.2 µg/mL | 
O=S1(=O)OCCOS(=O)(=O)C1Cl |  | > 100 µM
Oc1ccc(Br)cc1C=Nc1ccc(N=Cc2cc(Br)ccc2O)cc1 |  | > 100 µM
CCOc1ccccc1NC(=O)C(=O)Cc1nc2ccccc2s1 |  | > 100 µM
Cc1cccc(N=C2NC(=O)C(CC(=O)Nc3cccc(C)c3C)S2)c1 (stereo unspecified) |  | > 100 µM
CN(C)CCSc1nccc(-c2cc3ccccc3s2)n1 |  | 48.2 µM
O=C(O)CSc1n[nH]c(Cc2ccccc2)n1 |  | > 100 µM
O=C1C(Cl)=C(Nc2ccccc2O)C(=O)N1Cc1ccccc1 | 17.8 µM | 36.2 µM

These molecules were tested on UACC-257 melanoma (assay: DTP human tumour cell line panel, 48 h).

SMILES | GI50 | TGI
CN1CCN(c2ccc(Nc3ncc4cc(C#N)c(=O)n(C5CCCC5)c4n3)cc2)CC1 | 4.02 µM | > 100 µM
C=C1CC[C@@H](C(C)C)C[C@@H]2[C@H]([C@H](O)C[C@]2(C)O)[C@@]2(C)CC[C@@H]1O2 | 16.2 µM | 31.3 µM
Nc1ccc2[nH]cc(CCC(=O)O)c2c1 |  | > 100 µM
OCC(O)CNc1ccnc2cc(Cl)ccc12 (stereo unspecified) |  | > 100 µM
Cc1cccc(C(C)C)c1NC(=O)C(=O)C(C(=O)c1ccccc1F)C1OC(=O)c2ccccc21 (stereo unspecified) |  | 29.4 µM
O=C(N/N=C/c1c(Cl)cccc1Cl)c1ccc(C(F)(F)F)nc1Nc1cccc(C(F)(F)F)c1 | 1.02 µM | > 100 µM
O=C(NO)c1ccc(CN(c2cnccn2)c2cnccn2)cc1 | 5.77 µM | 22.2 µM
Cc1ccc(Nc2nnc(-c3ccc4c(c3)OCO4)o2)c(C)c1 |  | > 100 µM
CCCCCc1ccc(S(=O)(=O)Nc2cc(-c3csc(NC(C)=O)n3)ccc2N2CCN(C)CC2)cc1 | 4.48 µM | 11.4 µM
Cc1cccc(C)c1NC(=O)C(=O)CC(=O)c1cccc([N+](=O)[O-])c1 |  | > 100 µM
Cc1ccc(S(=O)(=O)NC(=O)NC2=NC(C)(C)N(c3ccc(Cl)c(Cl)c3)C(N)=N2)cc1 |  | > 100 µM
S=C1SC2=Nc3ccccc3CN2C2=NCCN12 | > 100 µM | > 100 µM
O=C(O)CN(c1ccccc1)S(=O)(=O)c1ccc([N+](=O)[O-])cc1 |  | > 100 µM
Clc1cc(Cl)cc(Nc2ccc3cc(OCCCN4CCOCC4)ccc3n2)c1 | 1.96 µM | 4.34 µM
COc1ccc2c3c(Nc4ccc(/C(C)=N/O)cc4)[nH]c4ccccc4c-3c(N=O)c2c1 | 3.08 µM | 8.56 µM
C/C(CCn1[nH]c(=O)ccc1=O)=N\OCCCc1ccccc1 |  | > 100 µM

SMILES | GI50 | TGI
CCN(CC)c1cc2oc3cc(N)cc(=N)c-3nc2cc1C | 3.11 µM | 34 µM
CC(=O)OC1C2CCC1C1C2C2(Cl)C(Cl)=C(Cl)C1(Cl)C2(Cl)Cl (stereo unspecified) |  | 27.4 µM
CC(C(=O)n1c2ccccc2c2ccccc21)N(c1ccccc1)c1ccccc1 (stereo unspecified) |  | 32.3 µM
CC(C)(C)OC(=O)N1N=NC2C1C1CC(OCc3ccccc3)(OCc3ccccc3)C2O1 (stereo unspecified) |  | 63.7 µM
O=C1CSC(c2ccc(-c3nc4ccccc4s3)cc2)=N1 | 30.8 µM | 75.7 µM
Cc1ncc([N+](=O)[O-])n1CCNS(=O)(=O)CCCn1ncnc1[N+](=O)[O-] |  | > 100 µM
CCC(=O)Nc1ccc(N=NN(C)C)cc1 |  | > 100 µM
O=c1c2ccccc2nc(-c2ccccc2)n1NC(=S)Nc1ccccc1 |  | > 100 µM
CCOC(=O)/C(=C/c1cccc(C#N)c1)N(CC)CC |  | > 100 µM
O=S1(=O)OCCOS(=O)(=O)C1Cl |  | > 100 µM
Oc1ccc(Br)cc1C=Nc1ccc(N=Cc2cc(Br)ccc2O)cc1 |  | > 100 µM
CCOc1ccccc1NC(=O)C(=O)Cc1nc2ccccc2s1 |  | > 100 µM
CO/N=C(/C)c1cccc(Nc2cc(-c3ccccc3)nc3ccc(OC)cc23)c1 | 18.4 µM | 43.2 µM
Cc1cccc(N=C2NC(=O)C(CC(=O)Nc3cccc(C)c3C)S2)c1 (stereo unspecified) |  | > 100 µM
O=C(O)CSc1n[nH]c(Cc2ccccc2)n1 |  | > 100 µM

The molecules below were run on IGROV1 ovarian (assay: DTP human tumour cell line panel, 48 h).

SMILES | GI50 | TGI
CN1CCN(c2ccc(Nc3ncc4cc(C#N)c(=O)n(C5CCCC5)c4n3)cc2)CC1 | 0.605 µM | > 23.3 µM
